This is an account of results in patent US5407951A, “Sulphonamidocycloalkane compounds, pharmaceutical compositions containing them, and methods of use thereof” (Boehringer Mannheim GmbH, priority 1988, dated 1995).

As usually defined, the pIC50 is −log10 of the IC50, conventionally taken in molar units. Read a low pIC50 as a large IC50.

Experiment [1] deals with Platelet-rich human blood plasma. Kind of experiment: In vitro inhibition of platelet aggregation induced by thromboxane mimetic U46619 (Born and Cross, aggregometer). The class given is cell-based. The settings on record: citrated platelet-rich human plasma, measured for five minutes. As for the experimental part:
(a) In vitro Inhibition of Platelet Aggregation.
Platelet-rich human blood plasma was treated with 3.2% citrate at a volume ratio of 1:9 to inhibit clotting. A selective thromboxane mimetic, U46619, which is a stable analog of the prostaglandin endoperoxide PGH2, as described by Coleman et al., Brit. J. Pharmocol. 68,127P (1980) was obtained from Upjohn & Co., Kalamazoo, Mich.
The test protocol was that described by Born and Cross, J. Physiol. 168,178 (1963) with the degree of aggregation measured using a 4-channel aggregometer (Profiler, Bio/Data Co.). The compounds of this invention, Examples 2.1, 4(cis) 4(trans), 6 ad 7 were diluted in saline, at final concentrations of 10^-4 to 10^-9M. Saline was used as a control. Measurements were made for a period of five minutes, After addition of the tromboxane mimetic. From the data obtained, an inhibitory concentration IC50 was calculated using standard methods.

A further experiment deals with Male NMRI mice. Kind of experiment: In vivo inhibition of induced pulmonary emboli (survival after lethal dose of U46619). Conditions: lethal dose U46619 (800-1000 ug/kg) into tail vein four hours later, survival after 24 hours, groups of 5; for Survival Rate of Mouse 1 mg/kg, 4 h in %: 1 mg/kg by gastric route in 1% methyl cellulose; for Survival Rate of Mouse 25 mg/kg, 4 h in %: 25 mg/kg by gastric route in 1% methyl cellulose. As for the experimental part: (b) In vivo Inhibition of Induced Pulmonary Emboli
Male NMRI mice, having a body weight of approximately 25g, were separated into groups of 5. Representative examples of the compounds of this invention listed in part (a) were suspended 1% methyl cellulose and administered to the animals by gastric incubation in amounts providing 1/mg/kg and 25/mg/kg of the antagonist, Four hours after incubation, a previously determined lethal dose of U46619 (800-1000 ug/kg) was injected into the tail vein of each animals. The survival rates for each group of mice was determined after 24 hours. The results are shown in Table 1 and indicate correlation with the IC50 measured in vitro.

pIC50: −log10 of the molar value.

On to `O=C(O)C1CCC(CCNS(=O)(=O)c2ccc(Cl)cc2)CC1` (stereo not drawn) [Example 2.1], for which, in experiment [1], the pIC50 was 5.70. Further, in the experiment with Male NMRI mice, the “Survival Rate of Mouse 1 mg/kg, 4 h in %” value stood at 100% and the “Survival Rate of Mouse 25 mg/kg, 4 h in %” value came to 100%.
With `O=C(CO[C@H]1CC[C@@H](CCNS(=O)(=O)c2ccc(Cl)cc2)CC1)Nc1nnn[nH]1` [4 (cis), cis-4-[2-(4-Chlorobenzenesulphonylamino)-ethyl]cyclohexyloxyacetic acid (tetrazol-5-yl)-amide], in experiment [1], the pIC50 was 5.34. Moreover, in the experiment with Male NMRI mice, the “Survival Rate of Mouse 1 mg/kg, 4 h in %” value amounted to 100% and the “Survival Rate of Mouse 25 mg/kg, 4 h in %” value stood at 100%.
`O=C(CO[C@H]1CC[C@H](CCNS(=O)(=O)c2ccc(Cl)cc2)CC1)Nc1nnn[nH]1` [4 (trans), trans-4-[2-(4-chlorobenzenesulphonylamino)-ethyl]-cyclohexyloxy acetic acid (tetrazol-5-yl-amide)]: the pIC50 in experiment [1] was 5.24. For the same molecule, in the experiment with Male NMRI mice, the “Survival Rate of Mouse 1 mg/kg, 4 h in %” value is recorded as 60% and the “Survival Rate of Mouse 25 mg/kg, 4 h in %” value is 100%.
Taken in the same sequence, the figures for `O=C(CC1CCC(CCNS(=O)(=O)c2ccc(Cl)cc2)CC1)Nc1nnn[nH]1` (stereo not drawn) [Example 6, 4-[2-(4-Chlorobenzenesulphonylamino)-ethyl]-cyclohexylacetic acid (tetrazol-5-yl-amide)] were 5.60, 100% and 100%.
Taken in the same sequence, the figures for `O=S(=O)(NCCC1CCC(OCc2nn[nH]n2)CC1)c1ccc(Cl)cc1` (stereo not drawn) [Example 7, 1-[2-(4-Chlorobenzenesulphonylamino)-ethyl]-4-(tetrazol-5-yl-methyleneoxy)-cyclohexane] were 6.38, 100% and 100%.
